# Entries after “also recorded” stand apart in the source; their conditions may differ.
# Tested on: Guinea pig, Hartley-Dunkin
smiles,measurement,setting,value
"O=[N+]([O-])c1ccc(Cl)c([N+](=O)[O-])c1 [1-Chloro-2,4-dinitrobenzene]",body weight compared with the negative control group,"D15, D31, D38",male animals showed slow weight gain; also recorded: female animals showed no significant difference in body weight
same,incidence of allergic reaction,after challenge,100%

# Reference: patent US20260263400A1, “COMPOUND COMPOSITION INCLUDING TRANEXAMIC ACID AND TRETINOIN” (Nanjing Indetek Laboratory Co., Ltd., priority 2023, published 2026)
